Measurements: patent EP1420790B1, “USE OF BIBN4096 IN COMBINATION WITH OTHER ANTIMIGRAINE DRUGS FOR THE TREATMENT OF MIGRAINE” (Boehringer Ingelheim Pharma GmbH & Co.KG, priority 2001, dated 2003)

System: facial skin vasodilation induced by electrical trigeminal ganglion stimulation
Experiment: Measurement of facial skin blood flow (vasodilation induced by electrical trigeminal ganglion stimulation, laser Doppler flowmetry)
Format: in vivo, rat
Settings: for % of trigeminus stimulation: anaesthetized male wistar rats
Experimental: Facial skin blood flow was measured by a modified method described by Escott et al. ([…]., Connor, H. E., Brain, S. D. (1995), Trigeminal ganglion stimulation increases facial skin blood flow in the rat a major role for calcitonin gene-related peptide, Brain Research, 669(1), 93-99). Fasted male wistar rats (strain CHbb:THOM, 280-320g) were anaesthetized with sodium pentobarbitone (initially with 60 mg/kg i.p. and maintained throughout the experiment with an intraperitoneal infusion of 30 mg/kg/h through a 23 G needle using a solution of 10 mg/ml). Both sides of the buccal area of the facial skin were shaved and depilated with a commercial depilatory […], Germany). The trachea was cannulated and the animals were artificially respired (80 strokes/min) with room air supplemented with oxygen. The body temperature was maintained at 37°C by an automated heating pad. The left femoral artery and the left femoral vein were cannulated for the continuous measurement of arterial blood pressure and intravenous administration of test compounds, respectively. […] Heart rate was derived from the blood pressure signal. Blood pressure and heart rate were continuously monitored throughout the course of the experiment to assess the level of anaesthesia and to monitor the cardiovascular effects of the drugs used in this study. The animals were placed in a stereotaxic frame and a longitudinal incision was made in the scalp. […] The position of the electrodes in the trigeminal ganglia were checked visually at the end of each experiment following removal of the brain. The trigeminal ganglion was stimulated at 10 Hz, 1 mA, 1 msec for 30 seconds using a stimulator supplied by Hugo Sachs Elektronik (79232 March-Hugstetten, Germany). Microvascular blood flow changes in the facial skin were measured by Laser Doppler flowmetry with a Periflux laser doppler system (PeriFLUX 4001, wave length […]; time constant 3 s, Perimed AB, Järfälla, S-17526, Sweden). Standard laser doppler probes (PROBE 408) were positioned on either side of the face approximately 0.5 cm below the centre of the eye, an area innervated by the maxillary branch (V2) of the trigeminal nerve. Blood flow changes were measured as flux in arbitrary units and expressed as area under the flux curve (mm^2) according to Escott et al. (1995). […] The first stimulation was used as a control for the subsequent stimulations.

NCCCC[C@H](NC(=O)[C@@H](Cc1cc(Br)c(O)c(Br)c1)NC(=O)N1CCC(N2Cc3ccccc3NC2=O)CC1)C(=O)N1CCN(c2ccncc2)CC1 [BIBN 4096 BS, 1-[N^2-[3,5-Dibromo-N-[[4-(3,4-dihydro-2(1H)-oxochinazolin-3-yl)-1-piperidinyl]-carbonyl]-D-tyrosyl]-L-lysyl]-4-(4-pyridinyl)-piperazine]
% of trigeminus stimulation (BIBN 4096 BS 0.03 mg/kg intravenously 5 min prior to second stimulation, mean ± spread): 60.3 ± 5.1% | % inhibition compared to control value (BIBN 4096 BS 0.03 mg/kg intravenously 5 min prior to second stimulation, versus saline control): 27.1%

CN(C)CCc1c[nH]c2ccc(C[C@H]3COC(=O)N3)cc12 [Zolmitriptan, zolmitriptan]
% of trigeminus stimulation (Zolmitriptan 0.1 mg/kg intravenously 5 min prior to second stimulation): 55.6 ± 4.8% | % inhibition compared to control value (Zolmitriptan 0.1 mg/kg intravenously 5 min prior to second stimulation, versus saline control): 32.8%

CN1C[C@H](C(=O)N[C@]2(C)O[C@@]3(O)[C@@H]4CCCN4C(=O)[C@H](Cc4ccccc4)N3C2=O)C[C@@H]2c3cccc4[nH]cc(c34)C[C@H]21 [DHE, Dihydroergotamin]
% inhibition compared to control value (rat, in vivo): 27.0%

CNS(=O)(=O)Cc1ccc2[nH]cc(CCN(C)C)c2c1 [Sumatriptan, sumatriptan]
% of trigeminus stimulation (Sumatriptan 1.0 mg/kg intravenously 5 min prior to second stimulation): 68.8 ± 6.8% | % inhibition compared to control value (Sumatriptan 1.0 mg/kg intravenously 5 min prior to second stimulation, versus saline control): 16.8%
